Reference: ChEMBL document CHEMBL1126514, “Thiopene systems. 15. Synthesis and antihypertensive activity of 7- (subsituted benzamido)-6-hydroxythieno[3,2,-b]pyrans as nwe potassium channel activitors” (1993)

Tests used:
Assay type in all cases: functional
[1] = system: Rattus norvegicus; assay: Maximal change in mean arterial blood pressure comparing MAP immediately prior to and up to 240 min after oral dose in rat
[2] = system: Rattus norvegicus; assay: Maximal change in mean arterial blood pressure comparing MAP immediately prior to and up to 240 min after oral dose of 0.1 mgkg of compound in rat
[3] = system: Rattus norvegicus; assay: Dose to produce 30% reduction in mean arterial pressure in rat when administered perorally; conditions: Artery, po
[4] = system: Rattus norvegicus; assay: Maximal change in mean arterial blood pressure comparing MAP immediately prior to and up to 240 min after oral dose of 1 mgkg of compound in rat
[5] = system: Rattus norvegicus; assay: Maximal change in mean arterial blood pressure comparing MAP immediately prior to and up to 240 min after oral dose of 0.3 mgkg of compound in rat

Compound | Change MAP [1] [%] | ED30 [3] [mg/kg] | also measured
CC1(C)Oc2ccsc2[C@@H](NC(=O)c2ccccc2)[C@@H]1O | 35 |  | 
CC(=O)c1cc2c(s1)[C@@H](NC(=O)c1ccco1)[C@H](O)C(C)(C)O2 | 38 |  | 
CC(=O)c1cc2c(s1)[C@@H](NC(=O)c1ccc(F)cc1F)[C@H](O)C(C)(C)O2 | 59 |  | Change MAP [2]: 16%
CC1(C)Oc2cc([N+](=O)[O-])sc2[C@@H](N2CCCCC2=O)[C@@H]1O |  | 0.015 | Change MAP [2]: 63%
CC(=O)c1cc2c(s1)[C@@H](NC(=O)c1ccc([N+](=O)[O-])cc1)[C@H](O)C(C)(C)O2 | 63 | 0.89 | 
CC(=O)c1cc2c(s1)[C@@H](NC(=O)c1cccc([N+](=O)[O-])c1)[C@H](O)C(C)(C)O2 | 63 |  | Change MAP [4]: 17%
CC(=O)c1cc2c(s1)[C@@H](NC(=O)c1ccc(C(F)(F)F)cc1)[C@H](O)C(C)(C)O2 | 26 |  | 
CC(=O)c1cc2c(s1)[C@@H](NC(=O)c1cccnc1)[C@H](O)C(C)(C)O2 | 29 |  | 
CC(=O)c1cc2c(s1)[C@@H](NC(=O)c1cccc(Cl)c1)[C@H](O)C(C)(C)O2 | 59 |  | Change MAP [5]: 17%
COc1ccc(C(=O)N[C@@H]2c3sc(C(C)=O)cc3OC(C)(C)[C@H]2O)cc1 | 20 |  | 
CC(=O)c1cc2c(s1)[C@@H](NC(=O)c1ccccc1F)[C@H](O)C(C)(C)O2 | 59 |  | Change MAP [4]: -17%
CC(=O)c1cc2c(s1)[C@@H](NC(=O)c1ccc(C)cc1)[C@H](O)C(C)(C)O2 | 10 |  | 
CC(=O)c1cc2c(s1)[C@@H](NC(=O)c1ccc(F)cc1)[C@H](O)C(C)(C)O2 | 75 | 0.059 | 
CC1(C)Oc2cc([N+](=O)[O-])sc2[C@@H](N2Cc3ccccc3C2=O)[C@@H]1O |  | 0.22 | 
CC(=O)c1cc2c(s1)[C@@H](NC(=O)c1ccc(Cl)cc1)[C@H](O)C(C)(C)O2 | 60 | 0.11 | 
CC1(C)Oc2cc([N+](=O)[O-])sc2[C@@H](NC(=O)c2ccccc2)[C@@H]1O | 38 |  | 
CC(=O)c1cc2c(s1)[C@@H](NC(=O)c1ccc(F)c(F)c1)[C@H](O)C(C)(C)O2 | 62 | 0.099 | 
CC(=O)c1cc2c(s1)[C@@H](NC(=O)c1ccccc1)[C@H](O)C(C)(C)O2 | 55 | 0.2 | 
CC1(C)Oc2cc([N+](=O)[O-])sc2[C@@H](NC(=O)c2ccc([N+](=O)[O-])cc2)[C@@H]1O | 29 |  | 
CC1(C)Oc2ccc(OC(F)(F)F)cc2[C@@H](N2Cc3ccccc3C2=O)[C@@H]1O [CELIKALIM] |  | 0.5 | 
CC1(C)Oc2ccc(C#N)cc2[C@@H](N2CCCC2=O)[C@@H]1O [CROMAKALIM] | 47 | 0.19 | 
